The values below come from patent publication US20080008652A1, “Methods and compositions for mediation of immune responses and adjuvant activity” (The Regents of the University of Michigan, priority 2006, published 2008).

Data set [1] relates to peritoneal macrophages and bone marrow-derived macrophages (BMDM). Nature of the data set: Cytokine secretion (IL-1β, IL-18, TNFα, IL-6) by stimulated macrophages, ELISA. The data set is classed as cell-based, mouse. The conditions noted are these: for secretion of IL-1β with brief ATP treatment: ligand 16 h, then 2 mM ATP 30 min; for requirement of endosomal acidification for IL-1β secretion: FIG. 12. A general note: In an ELISA, binding on a coated surface is turned into a signal by an enzyme label.

A further data set relates to BMDM. Nature of the data set: Cooperation of low-dose LPS with microbial ligands for IL-1β secretion. Particulars: for synergy with LPS for the secretion of IL-1β: WT BMDM, 10 ng ml−1 LPS and 10 ng ml−1 ligand, 24 h. The format is cell-based, mouse. The method, then: Measurements of cytokines. BMDM and peritoneal macrophages were prepared as previously described. Cells were stimulated with various microbial and synthetic ligands for 24 h and the supernatants were analyzed for IL-1β, IL-18, TNFα and IL-6 secretion. The following ligand concentrations were used: FLS-1, Pam3CSKKK4, LPS, lipoteichoic acid, lipid A and MDP were used at 1 μg ml^−1. For analysis of cooperation of LPS with various ligands, 10 ng ml^−1 of LPS and 10 ng ml^−1 of various ligands were used. In some experiments, the macrophages were stimulated with ligands for 16 h and then with medium containing 2 mM ATP (Sigma) for 30 min, washed, and cultured for an additional 5 h. Mouse cytokines were measured in culture supernatants with enzyme-linked immunoabsorbent assay (ELISA) kits (R and D Systems, Minneapolis, Minn.).

Another data set has as its system caspase-1. Nature of the data set: Caspase-1 activation (pro-caspase-1 processing) in macrophages, Western blotting. The data set is classed as cell-based, mouse. The conditions noted are these: for proteolytic processing of pro-caspase-1 (mature 20 kDa subunit): WT macrophages, ligand 1-3 h, then ATP 30 min.
For data set [2], the system named is HSA-specific immunoglobulin. Nature of the data set: Adjuvant activity: HSA-specific serum immunoglobulin after immunization. The data set is classed as in vivo, mouse. The method, then:
Immunization of mice. […] Serum sample were obtained two weeks after the first immunization and one week after the boost, and antigen specific serum immunoglobulin was assessed by ELISA using antibodies against mouse immunoglobulin and isotype controls (Southern Biotechnology).

Data set [3] has as its system IL-1β, IL-6 and TNFα in serum. The data set is described as follows: Serum cytokines after co-injection of LPS and R837 into mice, ELISA. The format is in vivo, mouse. The method, then: (200 μg) or LPS plus […] (200 μg each) and levels of IL-1β (a), IL-6 (b) or TNFα (c) in serum were determined by ELISA at the indicated times.
For the next data set, the system named is NF-κB, ERK and p38. The data set is described as follows: NF-κB and MAPK (ERK, p38) activation in macrophages, Western blotting. The data set is classed as cell-based, mouse. Particulars: R837 5 μg ml-1. (A western blot detects proteins with antibodies after separation by electrophoresis.)
Another data set has as its system mice. Nature of the data set: LPS-induced endotoxic shock, survival. The format is in vivo, mouse. Particulars: WT compared with cryopyrin−/− mice; 200 μg or 400 μg LPS. The method, then: Indicated numbers of wild-type and cryopyrin−/− mice (8 to 12 weeks old) were challenged with 200 μg (a) or 400 μg (b) of LPS and the survival over time of each mouse genotype was plotted.

Setting [4] is: WT compared with cryopyrin−/− peritoneal macrophages or BMDM, 24 h stimulation, ELISA.
Setting [5] is: WT compared with cryopyrin−/− macrophages.
[6] abbreviates: WT mice, co-injection of LPS and R837 compared with each alone.
[7] abbreviates: cryopyrin−/− mice, LPS plus R837.
Where [8] appears, read: WT compared with cryopyrin−/− macrophages, R837 stimulation 24 h.
Where [9] appears, read: cryopyrin−/− compared with WT mice, R837 100 μg and HSA 50 μg i.p., 2 weeks after immunization.

For lipoteichoic acid, the “secretion of IL-1β” value in data set [1] (setting [4]) was “induced comparable levels of IL-1β in wild-type (WT) and cryopyrin−/− macrophages”. Further, the “synergy with LPS for the secretion of IL-1β” value (“synergy with LPS” for short) with BMDM is “not”.

Turning to `CC(=O)N[C@H]1C(O)O[C@H](CO)[C@@H](O)[C@@H]1O[C@H](C)C(=O)N[C@@H](C)C(=O)N[C@H](CCC(=O)O)C(N)=O` (mixture of isomers) [MDP, muramyl dipeptide], in data set [1] (setting [5]), the “secretion of IL-1β with brief ATP treatment” value is “did not induce secretion of IL-1β over background levels”. For the same molecule, in data set [1] (setting [4]), the “secretion of IL-1β” value is reported as “did not induce secretion of IL-1β over background levels”. In addition, the “proteolytic processing of pro-caspase-1 (mature 20 kDa subunit)” value in the data set on caspase-1 was “did not induce proteolytic processing of pro-caspase-1”.

As for lipid A, the “secretion of IL-1β” value in data set [1] (setting [4]) is “induced comparable levels of IL-1β in wild-type (WT) and cryopyrin−/− macrophages”. Moreover, in the data set with caspase-1 (cryopyrin−/− macrophages), the “activation of caspase-1” value was “unimpaired in cryopyrin−/− macrophages”. Besides, the “synergy with LPS” value with BMDM is “not”.

Turning to 5′-TCCATGACGTTCCTGACGTT-3′ [CpG], the “synergy with LPS” value in the data set with BMDM is on record as “not”. For the same molecule, the “enhancement of HSA-specific IgG responses” value in data set [2] (WT compared with cryopyrin−/− mice, CpG 100 μg and HSA 50 μg, boosted 3 weeks later) is given as “unaffected by cryopyrin deficiency”.

Regarding `CC(C)Cn1cnc2c(N)nc3ccccc3c21` [R837, Imiquimod], in data set [3] (WT mice, co-administration of R837 and LPS (200 μg each) compared with each alone), the “levels of IL-1β in serum” value is “higher levels of IL-1β in serum than injection of R837 or LPS alone”. In data set [3] (setting [6]), the “serum levels of IL-6” value is listed as “enhanced” and the “serum levels of TNFα” value is “enhanced”. For the same molecule, in data set [3] (setting [7]), the “serum levels of IL-6” value is listed as “Reduced levels” and the “serum levels of TNFα” value is reported as “Reduced levels”. Further, the “enhancement of the LPS response (serum IL-1β) by R837” value in data set [3] (cryopyrin−/− mice, LPS plus R837 200 μg each) was “abolished in cryopyrin−/− mice”. The “requirement of endosomal acidification for IL-1β secretion” value in data set [1] is given as “not required”. Also, in data set [1] (setting [8]), the “production of IL-6: need for cryopyrin” value is recorded as “cryopyrin was dispensable” and the “production of TNFα: need for cryopyrin” value was “cryopyrin was dispensable”. Further, in data set [1] (setting [5]), the “secretion of IL-1β with brief ATP treatment” value is on record as “Cryopyrin is required”. Besides, in data set [1] (setting [4]), the “secretion of IL-1β” value is “abrogated” and the “secretion of IL-18” value is listed as “abrogated”. Moreover, in the data set with caspase-1 (TLR7- or MyD88-deficient macrophages), the “activation of caspase-1” value is “proceeded normally”. Also, the “proteolytic processing of pro-caspase-1 (mature 20 kDa subunit)” value in the data set on caspase-1 is given as “induced in WT macrophages”. In addition, in the data set on caspase-1 (cryopyrin−/− macrophages), the “activation of caspase-1” value is recorded as “abrogated in macrophages lacking cryopyrin”. The “activation of caspase-1” value in the data set on caspase-1 (macrophages lacking ASC) is “abrogated”. Besides, the “activation of NF-κB and MAPKs” value with NF-κB, ERK and p38 (TLR7- and MyD88-deficient macrophages) was “abolished in TLR7- and MyD88-deficient macrophages”. The “NF-κB, ERK and p38 activation” value with NF-κB, ERK and p38 (WT compared with cryopyrin−/− BMDM) is “induced comparable levels of NF-κB, ERK and p38 activation in WT and cryopyrin−/− macrophages”. Also, the “enhancement of LPS-mediated IL-1β production” value in the data set with BMDM (cryopyrin−/− macrophages) is listed as “abrogated in cryopyrin−/− macrophages”. Further, in data set [2] (setting [9]), the “production of antigen specific IgG1” value is listed as “exhibited a defect”, the “production of antigen specific IgG2a/c” value is “exhibited a defect” and the “production of antigen specific IgG3” value is “exhibited a defect”.

Regarding Pam3CSK4, in data set [1] (setting [4]), the “secretion of IL-1β” value was “induced comparable levels of IL-1β in wild-type (WT) and cryopyrin−/− macrophages”.

`CCN(CC)CCCC(C)Nc1ccnc2cc(Cl)ccc12` (stereo not shown) [chloroquine]: in data set [1] (treatment of macrophages with chloroquine), the “effect on production of IL-1β induced by bacterial RNA” value is “did not affect”.

Regarding flagellin, in the data set on BMDM, the “synergy with LPS” value is “not”.

lipopolysaccharide [LPS]: the “requirement of endosomal acidification for IL-1β secretion” value in data set [1] was “not required”. The “secretion of IL-1β” value in data set [1] (setting [4]) was “induced comparable levels of IL-1β in wild-type (WT) and cryopyrin−/− macrophages”. Further, the “activation of caspase-1” value in the data set with caspase-1 (cryopyrin−/− macrophages) is “unimpaired in cryopyrin−/− macrophages”. Besides, in the data set with mice, the “lethality of high doses of LPS” value is “comparable lethality in WT and cryopyrin−/− mice”.

Consider Pam2CGDPKHPHSF, for which, in data set [1] (setting [4]), the “secretion of IL-1β” value was “induced comparable levels of IL-1β in wild-type (WT) and cryopyrin−/− macrophages”.
